Data taken from PubChem BioAssay AID489040 (Sanford-Burnham Center for Chemical Genomics, 2010).
Active and inactive are the calls of the source.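 How the source made its calls: active means mean half-maximal activating concentration from the dose-response fit at or below a set limit; inactive means the rest.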

Biological target: CHO-XBP1 luciferase reporter, IRE1-XBP1 UPR activation
Experiment: activators of IRE1-XBP1 UPR arm, dose response, counter-screen for apoptotic UPR arm activators, CHO-XBP1 cells, luminescence (AID 489040);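 further: reporter read after six hours of compound exposure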

Row | Compound | EC50
1 | COc1ccc(C2Nc3ccc4ccccc4c3-c3c2c(=O)oc2ccccc32)cc1 (configuration not stated) | 9.62 µM
2 | Cc1ccc2nc(-c3ccc(NC(=S)NC4CC(C)(C)NC(C)(C)C4)cc3)sc2c1 | > 80 µM (inactive)
3 | O=C(Nc1nc(-c2ccc(F)c(F)c2)cs1)Nc1ccc(F)cc1F | > 80 µM (inactive)
4 | Oc1ccc2ccccc2c1N=Nc1ccccn1 | > 80 µM (inactive)
5 | O=S(=O)(CCSc1nc2ccccc2s1)c1nc2ccccc2s1 | > 80 µM (inactive)
6 | CN1/C(=C\C(=O)COC(=O)c2ccc(O)c(O)c2)C(C)(C)c2ccccc21 | 9.91 µM
7 | CC1(C)CC(=O)C(=Cc2cn(-c3ccccc3)nc2-c2ccccc2)C(=O)C1 | > 80 µM (inactive)
8 | O=C(CN1CCN(c2ccccc2F)CC1)c1ccc(O)c(O)c1 | > 80 µM (inactive)
9 | Cc1nn(Cc2c(Cl)cccc2Cl)c(C)c1NC(=O)c1cn(-c2ccccc2)nc1-c1ccccc1 | > 80 µM (inactive)
10 | O=C(Oc1c(CN2CCOCC2)cc(Cl)c2cccnc12)c1ccccc1F | > 80 µM (inactive)
11 | Cc1cccc(-n2c(/C=C/c3ccc([N+](=O)[O-])o3)nc3ccccc3c2=O)c1 | > 80 µM (inactive)
12 | COc1ccc(C2OC34CCCCC3C(C#N)(C#N)C2(C#N)C(=N)O4)cc1 (configuration not stated) | > 80 µM (inactive)
13 | c1ccc(CSC2=NNC(c3ccccn3)S2)cc1 (configuration not stated) | > 80 µM (inactive)
14 | Cc1ccc(C(C)C)c(OCc2ccc(C(=O)N/N=C/c3ccc(O)c(O)c3)cc2)c1 | 4.41 µM
15 | C=CCn1c(O)c(N=NC(=S)Nc2ccccc2F)c2cc(S(=O)(=O)N3CCOCC3)ccc21 | > 80 µM (inactive)
16 | Cc1ccccc1CS(=O)(=O)c1ncc(Cl)c(C(=O)Nc2ccc(F)cc2)n1 | > 80 µM (inactive)
17 | O=C(N/N=C/c1cccc([N+](=O)[O-])c1)c1cc2c(ccc3ccccc32)o1 | > 80 µM (inactive)
18 | Cc1nc(NC(=O)/C=C/c2ccccc2)n[nH]1 | > 80 µM (inactive)
19 | COc1ccc2c(c1)CCc1c(C(=O)Nc3cc(C)n(Cc4ccc(Cl)cc4)n3)noc1-2 | > 80 µM (inactive)
20 | CCOC(=O)/C=c1\s/c(=C\c2ccc3cc(OC)ccc3c2)c(=O)n1CC(=O)NCC1CCCO1 (configuration not stated) | 17.4 µM
21 | COc1cc(/C=C/C(=O)N2C(=O)c3cccc(N)c3C2=O)cc(OC)c1OC | > 80 µM (inactive)
22 | Cc1c(C(=O)c2cccc3ccccc23)c2cccc3c2n1[C@H](CN1CCOCC1)CO3 | > 80 µM (inactive)
23 | Cc1ccc(NC(=O)c2ccc([N+](=O)[O-])o2)cc1S(=O)(=O)N1CCOCC1 | > 80 µM (inactive)
24 | O=C(CN(c1cccc(C(F)(F)F)c1)S(=O)(=O)c1ccc(Cl)c([N+](=O)[O-])c1)NCc1ccc(F)cc1 | > 80 µM (inactive)
25 | Brc1ccccc1CN1CCN(Cc2c[nH]c3ccccc23)CC1 | > 80 µM (inactive)

Row | Compound | EC50
26 | CN1CCN(c2ccc(NC(=O)c3ccc([N+](=O)[O-])o3)cc2Cl)CC1 | > 80 µM (inactive)
27 | CN(C)S(=O)(=O)c1cccc(NC(=O)CSc2cccc3cccnc23)c1 | > 80 µM (inactive)
28 | COc1c(Cl)cc(Cl)cc1/C=C/C(=O)c1ccc(NC(=O)c2cccs2)cc1 | > 80 µM (inactive)
29 | Oc1ccc(/C=N/Nc2ccnc3cc(Cl)ccc23)cc1O | 8.71 µM
30 | CC(=O)N(\C=C/C=C/C=C1\Sc2ccccc2C1=O)c1ccccc1 | > 80 µM (inactive)
31 | CC(C)N1C(=O)/C(=C/C=C/c2ccco2)C(=O)N(Cc2ccco2)C1=O | > 80 µM (inactive)
32 | COC(=O)c1ccc(-n2c(C)cc(C(=O)CCl)c2C)cc1 | 9.06 µM
33 | O=C(c1cccs1)N(C(=O)c1cccs1)c1ccc(Br)cn1 | 17.9 µM
34 | COc1ccc(C(=O)N/N=C(\C)c2ccccn2)cc1OC | > 80 µM (inactive)
35 | COc1ccc(/C=N/Nc2cc(C)nc(-n3nc(C)cc3C)n2)cc1 | > 80 µM (inactive)
36 | Cc1ccc(C)c(N=Cc2c(O)c3ccccc3oc2=O)c1 | inactive
37 | Cc1cc(NC(=O)c2cc(-c3ccccn3)nc3ccc(Br)cc23)no1 | > 80 µM (inactive)
38 | O=C(Oc1oc(-c2ccco2)nc1C=Nc1ccc(Cl)cc1)c1ccco1 | > 80 µM (inactive)
39 | Cc1ccc(S(=O)(=O)Nc2cccc3cccnc23)c([N+](=O)[O-])c1 | > 80 µM (inactive)
40 | Cc1ccc(S(=O)(=O)Nc2cccc3cccnc23)cc1 | > 80 µM (inactive)
41 | CCc1cc(C(=O)c2ccc(C)cc2)c(NC(=O)CCl)s1 | > 80 µM (inactive)
42 | C=C(C(=O)c1ccccc1)C(C(=C)C(=O)c1ccccc1)c1ccc(OC)cc1 | > 80 µM (inactive)
43 | Cc1c(C#N)c(NC(=O)CCl)n(Cc2ccccc2)c1C | > 80 µM (inactive)
44 | Cc1cc(C(=O)c2ccc(C(C)(C)C)cc2)c(NC(=O)CCl)s1 | > 80 µM (inactive)
45 | COc1ccc(-c2cc(=O)oc3c(C)c(OC(=O)c4cccs4)ccc23)cc1 | > 80 µM (inactive)
46 | CCOC(=O)c1ccc(N=C2C(=S)N(c3ccc(C(=O)OCC)cc3)C(=N)N2/N=C/c2ccccc2)cc1 | > 80 µM (inactive)
47 | CC1CCN(Cc2c(C(=O)N/N=C/c3ccc(C(C)(C)C)cc3)nnn2-c2nonc2N)CC1 | > 80 µM (inactive)
48 | COc1ccc(N=c2oc3c(OC)cccc3cc2C(=O)NCc2ccco2)c(OC)c1 | inactive
49 | O=C1/C(=C/c2ccccc2[N+](=O)[O-])COc2ccccc21 | > 80 µM (inactive)
50 | Oc1ccc(/C=N/Nc2ccc(C(F)(F)F)cn2)cc1O | > 80 µM (inactive)

Row | Compound | EC50
51 | O=C(C#Cc1cccc([N+](=O)[O-])c1)c1ccccc1 | > 80 µM (inactive)
52 | C/C(=C\c1ccc(N(C)C)cc1)[N+](=O)[O-] | > 80 µM (inactive)
53 | COc1ccc(OC)c(N=Cc2c(O)c3ccccc3oc2=O)c1 | 12 µM
54 | Cc1ccc(/C=C/C(=O)c2ccc([N+](=O)[O-])o2)cc1 | > 80 µM (inactive)
55 | COc1ccc(NS(=O)(=O)c2ccc3ccccc3c2)c2ncccc12 | > 80 µM (inactive)
56 | CC(C)N=c1scc(-c2ccco2)n1/N=C/c1ccc(O)c(O)c1 | 4.51 µM
57 | CCOC(=O)N1CCN(Cc2ccc(O)c3ncccc23)CC1 | > 80 µM (inactive)
58 | COc1ccc(-n2nc(C#N)c(Cl)cc2=O)cc1 | > 80 µM (inactive)
59 | COc1ccc(C(=O)/C=C2/C(=O)Nc3ccccc32)c(OC)c1 | > 80 µM (inactive)
60 | CCOC(=O)/C(=C\c1cccc(O)c1)c1nc2sc(C)c(C)c2c(=O)[nH]1 | > 80 µM (inactive)
61 | CCCCCCCCCCn1c2c(c(=N)c3c1CCC3)CCC2 | 19.8 µM
62 | Cc1ccc(-c2csc3ncnc(Sc4nnc(CN5CCCCCC5=O)o4)c23)cc1 | > 80 µM (inactive)
63 | Oc1ccc(CN2CCC(Cc3ccccc3)CC2)c2cccnc12 | > 80 µM (inactive)
64 | COc1cc(C(Nc2ccccn2)c2ccc3ccc(C)nc3c2O)cc(OC)c1O (configuration not stated) | > 80 µM (inactive)
65 | COc1cc([N+](=O)[O-])cc(/C=N/NC(=O)c2ccc(NC(=O)c3ccc(C)cc3)cc2)c1O | > 80 µM (inactive)
66 | O=C(COc1ccc(/C=N/NC(=O)c2cc3ccccc3o2)cc1Br)Nc1ccccc1 | 4.66 µM
67 | CN(C)CC(C(=O)c1ccccc1)c1ccccc1 (configuration not stated) | > 80 µM (inactive)
68 | CC(C)N1C/C(=C/c2ccsc2)C(=O)/C(=C/c2ccsc2)C1 | > 80 µM (inactive)
69 | Cc1ccc(S(=O)(=O)N(C(=O)c2ccncc2)c2ccc(OC(=O)c3ccncc3)c3ccccc23)c(C)c1 | > 80 µM (inactive)
70 | O=C(N/N=C(\c1ccccc1)c1ccccn1)c1cccc([N+](=O)[O-])c1 | > 80 µM (inactive)
71 | CCOc1ccc(N2C(=O)/C(=C\c3cccs3)C(=O)NC2=S)cc1 | > 80 µM (inactive)
72 | CCc1nnc(NC(=O)CSc2nc(-c3ccccc3)cc(-c3ccc(OC)cc3)c2C#N)s1 | > 80 µM (inactive)
73 | CSc1nnc(NC(=O)c2nc(S(=O)(=O)Cc3cccc(C)c3)ncc2Cl)s1 | > 80 µM (inactive)
74 | COc1ccc(CC2=CC(=O)c3ccccc3C2=O)cc1 | > 80 µM (inactive)
75 | CCOc1cc(/C=N/NC(N)=S)cc(Br)c1OCc1ccccc1C | > 80 µM (inactive)

Row | Compound | EC50
76 | Cc1cccnc1Nc1nc(-c2ccccn2)cs1 | > 80 µM (inactive)
77 | C/C(=N\NC(=O)C(C)Oc1ccc([N+](=O)[O-])cc1)c1ccccn1 (configuration not stated) | > 80 µM (inactive)
78 | O=S(=O)(Nc1cccc2cccnc12)c1ccccc1 | > 80 µM (inactive)
79 | CS(=O)(=O)c1nc(-c2ccccc2)cc(-c2ccccc2)c1C#N | > 80 µM (inactive)
80 | Cc1ccc(-c2nc(SCC(=O)Nc3cc(C)on3)c3c(=O)n(C)c(=O)n(C)c3n2)cc1 | inactive
81 | CCCCOc1ccc(N2C(=O)CC(N(O)c3ccccc3)C2=O)cc1 (configuration not stated) | > 80 µM (inactive)
82 | CCN(CC)S(=O)(=O)c1ccc(N/N=C(\C)c2ccc3c(c2)OCO3)c([N+](=O)[O-])c1 | 17.5 µM
83 | COc1ccccc1/C=N\Nc1cc(C)nc(-n2nc(C)cc2C)n1 | > 80 µM (inactive)
84 | O=C(C[C@H]1C[C@H](C(=O)N2CCCCC2)[C@@]2(CCc3ccccc3)c3[nH]c4ccc(Cl)cc4c3CCN2C1=O)NCCC1=CCCCC1 | inactive
85 | CN1C(=O)/C(=C/c2cccn2-c2ccc3ccccc3c2)C(=O)NC1=S | 7.87 µM
86 | C/C(=N\NC(=O)c1cc(-c2cccs2)nc2ccccc12)c1ccccn1 | > 80 µM (inactive)
87 | CCOC(=O)c1cc(-c2ccc(/C=C3/C(=O)N(c4ccc(C(=O)O)cc4)N=C3C)o2)ccc1Cl | > 80 µM (inactive)
88 | CCNc1ccccc1CP(=O)(c1ccccc1)c1ccccc1O (configuration not stated) | > 80 µM (inactive)
89 | Cc1noc2ncnc(Sc3ccc(Cl)cc3)c12 | > 80 µM (inactive)
90 | S=C1SCN(Cc2ccco2)CN1Cc1ccco1 | > 80 µM (inactive)
91 | O=C(N/N=C/c1cccc2cccnc12)c1ccccc1O | > 80 µM (inactive)
92 | COc1cc(SC#N)ccc1N=Cc1c(C)[nH]n(-c2ccc(C)c(C)c2)c1=O | > 80 µM (inactive)
93 | COc1ccc(C(=O)C(CN2CCCC2)c2ccccc2)cc1 (configuration not stated) | > 80 µM (inactive)
94 | O=C(CCl)Nc1cc(S(=O)(=O)N2CCCCCC2)ccc1Cl | > 80 µM (inactive)
95 | O=C(c1ccc(Cl)cc1)C(CN1CCCC1)c1ccccc1 (configuration not stated) | > 80 µM (inactive)
96 | COc1cccc2sc(Nc3nc(C)c(C(C)=O)s3)nc12 | > 80 µM (inactive)
97 | Cn1c(-c2cccc(OCc3ccccc3)c2)nc2c1c(=O)[nH]c(=O)n2Cc1ccccc1 | > 80 µM (inactive)
